Values of other authors as cited in patent publication US20090317464A1, “METHODS AND COMPOSITIONS FOR PRODUCING ANTI-ANDROGENIC EFFECTS” (PANACEA BIOTEC LTD., priority 2006, published 2009).

In the case of `CC(O)(CS(=O)(=O)c1ccc(F)cc1)C(=O)Nc1ccc(C#N)c(C(F)(F)F)c1` (stereo not drawn) [Bicalutamide, 4-cyano-3-trifluoromethyl-N-(3-p-fluorophenylsulphony 1-2-hydroxy-2-methylpropionyl) aniline], the “steady state concentration (Css) versus dose” value (daily administration to patients, above 300 mg, studied at 450 and 600 mg dose) is listed as “no further increase in Css is observed”, the half life (in vivo) is listed as “approximately 5.8 days” and the “time to peak plasma concentration” value (in vivo) is listed as “about 31 hours”.
